Measurements published in patent US20260053812A1, “METHODS OF TREATING HYPERTENSION WITH A COMBINATION OF AN ALDOSTERONE SYNTHASE INHIBITOR AND A DIURETIC” (Mineralys Therapeutics, Inc., priority 2022, published 2026).

Tests used:
Format in all cases: in vivo, human
[1] = Estimated glomerular filtration rate (eGFR, CKD-EPI equation)
Serum sodium = settings: active treatment cohorts, Parts 1 and 2
[2] = Clinical laboratory evaluations, vital signs, physical examination, ECG
Description: Safety endpoints of this study are: • (a) Incidence and severity of all spontaneously reported adverse events (AEs) • (b) Changes in vital signs (standing SBP, standing DBP, body temperature, heart rate, and respiratory rate) • (c) Changes in electrocardiogram parameters (including cardiac intervals: PR, QRS, QT, and corrected QT interval using Fridericia's formula) • (d) Changes in clinical laboratory assessments (hematology, chemistry, coagulation, and urinalysis) • (e) Change in office-measured SBP from Study Week 8 (end-of-treatment period to end of follow up (i.e. end of Study Week 12 for Part 1 and end of Study 10 for Part 2).

With CC(=O)N[C@H]1CC[C@H](NC(=O)CN2CCN(c3nncc(-c4ccc(C)cc4)n3)CC2)CC1 [Compound A HBr] the “Estimated Glomerular Filtration Rate, mean change from baseline” value ([1]; Part 1, 25 mg BID, Week 6) was −8.02 mL/min/1.73 m^2, the “Estimated Glomerular Filtration Rate, mean observed” value ([1]; Part 1, 25 mg BID, Week 6) was 72.64 mL/min/1.73 m^2 and the “Estimated Glomerular Filtration Rate, mean change from baseline” value ([1]; Part 1, 25 mg BID, Week 7) was −7.85 mL/min/1.73 m^2. For the same compound, the “Estimated Glomerular Filtration Rate, mean observed” value ([1]; Part 1, 25 mg BID, Week 7) was 72.22 mL/min/1.73 m^2, the “Estimated Glomerular Filtration Rate, mean change from baseline” value ([1]; Part 1, 25 mg BID, Week 8) was −5.55 mL/min/1.73 m^2 and the “Estimated Glomerular Filtration Rate, mean observed” value ([1]; Part 1, 25 mg BID, Week 8) was 75.11 mL/min/1.73 m^2. For the same compound, the “Estimated Glomerular Filtration Rate, mean observed” value ([1]; Part 1, 50 mg QD, BL) was 77.18 mL/min/1.73 m^2, the “Estimated Glomerular Filtration Rate, mean change from baseline” value ([1]; Part 1, 50 mg QD, Week 1) was −2.96 mL/min/1.73 m^2 and the “Estimated Glomerular Filtration Rate, mean observed” value ([1]; Part 1, 50 mg QD, Week 1) was 74.21 mL/min/1.73 m^2. The “Estimated Glomerular Filtration Rate, mean change from baseline” value ([1]; Part 1, 50 mg QD, Week 2) was −4.32 mL/min/1.73 m^2, the “Estimated Glomerular Filtration Rate, mean observed” value ([1]; Part 1, 50 mg QD, Week 2) was 72.86 mL/min/1.73 m^2 and the “Estimated Glomerular Filtration Rate, mean change from baseline” value ([1]; Part 1, 50 mg QD, Week 3) was −2.35 mL/min/1.73 m^2. For the same compound, the “Estimated Glomerular Filtration Rate, mean observed” value ([1]; Part 1, 50 mg QD, Week 3) was 74.81 mL/min/1.73 m^2, the “Estimated Glomerular Filtration Rate, mean change from baseline” value ([1]; Part 1, 50 mg QD, Week 4) was −3.61 mL/min/1.73 m^2 and the “Estimated Glomerular Filtration Rate, mean observed” value ([1]; Part 1, 50 mg QD, Week 4) was 73.63 mL/min/1.73 m^2. For the same compound, the “Estimated Glomerular Filtration Rate, mean change from baseline” value ([1]; Part 1, 50 mg QD, Week 5) was −4.10 mL/min/1.73 m^2, the “Estimated Glomerular Filtration Rate, mean observed” value ([1]; Part 1, 50 mg QD, Week 5) was 70.58 mL/min/1.73 m^2 and the “Estimated Glomerular Filtration Rate, mean change from baseline” value ([1]; Part 1, 50 mg QD, Week 6) was −2.83 mL/min/1.73 m^2. The “Estimated Glomerular Filtration Rate, mean observed” value ([1]; Part 1, 50 mg QD, Week 6) was 74.63 mL/min/1.73 m^2, the “Estimated Glomerular Filtration Rate, mean change from baseline” value ([1]; Part 1, 50 mg QD, Week 7) was −5.46 mL/min/1.73 m^2 and the “Estimated Glomerular Filtration Rate, mean observed” value ([1]; Part 1, 50 mg QD, Week 7) was 69.68 mL/min/1.73 m^2. The “Estimated Glomerular Filtration Rate, mean change from baseline” value ([1]; Part 1, 50 mg QD, Week 8) was −4.64 mL/min/1.73 m^2, the “Estimated Glomerular Filtration Rate, mean observed” value ([1]; Part 1, 50 mg QD, Week 8) was 72.54 mL/min/1.73 m^2 and the “Estimated Glomerular Filtration Rate, mean observed” value ([1]; Part 1, 100 mg QD, BL) was 77.35 mL/min/1.73 m^2. The “Estimated Glomerular Filtration Rate, mean change from baseline” value ([1]; Part 1, 100 mg QD, Week 1) was −6.80 mL/min/1.73 m^2, the “Estimated Glomerular Filtration Rate, mean observed” value ([1]; Part 1, 100 mg QD, Week 1) was 70.81 mL/min/1.73 m^2 and the “Estimated Glomerular Filtration Rate, mean change from baseline” value ([1]; Part 1, 100 mg QD, Week 2) was −10.91 mL/min/1.73 m^2. For the same compound, the “Estimated Glomerular Filtration Rate, mean observed” value ([1]; Part 1, 100 mg QD, Week 2) was 65.56 mL/min/1.73 m^2, the “Estimated Glomerular Filtration Rate, mean change from baseline” value ([1]; Part 1, 100 mg QD, Week 3) was −9.24 mL/min/1.73 m^2 and the “Estimated Glomerular Filtration Rate, mean observed” value ([1]; Part 1, 100 mg QD, Week 3) was 67.22 mL/min/1.73 m^2. For the same compound, the “Estimated Glomerular Filtration Rate, mean change from baseline” value ([1]; Part 1, 100 mg QD, Week 4) was −9.46 mL/min/1.73 m^2, the “Estimated Glomerular Filtration Rate, mean observed” value ([1]; Part 1, 100 mg QD, Week 4) was 67.23 mL/min/1.73 m^2 and the “Estimated Glomerular Filtration Rate, mean change from baseline” value ([1]; Part 1, 100 mg QD, Week 5) was −10.50 mL/min/1.73 m^2. For the same compound, the “Estimated Glomerular Filtration Rate, mean observed” value ([1]; Part 1, 100 mg QD, Week 5) was 66.19 mL/min/1.73 m^2, the “Estimated Glomerular Filtration Rate, mean change from baseline” value ([1]; Part 1, 100 mg QD, Week 6) was −9.94 mL/min/1.73 m^2 and the “Estimated Glomerular Filtration Rate, mean observed” value ([1]; Part 1, 100 mg QD, Week 6) was 66.19 mL/min/1.73 m^2. The “Estimated Glomerular Filtration Rate, mean change from baseline” value ([1]; Part 1, 100 mg QD, Week 7) was −9.50 mL/min/1.73 m^2, the “Estimated Glomerular Filtration Rate, mean observed” value ([1]; Part 1, 100 mg QD, Week 7) was 66.96 mL/min/1.73 m^2 and the “Estimated Glomerular Filtration Rate, mean change from baseline” value ([1]; Part 1, 100 mg QD, Week 8) was −7.83 mL/min/1.73 m^2. The “Estimated Glomerular Filtration Rate, mean observed” value ([1]; Part 1, 100 mg QD, Week 8) was 68.42 mL/min/1.73 m^2, the “Estimated Glomerular Filtration Rate, mean observed” value ([1]; Part 2, 100 mg QD, BL) was 79.90 mL/min/1.73 m^2 and the “Estimated Glomerular Filtration Rate, mean change from baseline” value ([1]; Part 2, 100 mg QD, Week 1) was −9.65 mL/min/1.73 m^2. For the same compound, the “Estimated Glomerular Filtration Rate, mean observed” value ([1]; Part 2, 100 mg QD, Week 1) was 70.73 mL/min/1.73 m^2, the “Estimated Glomerular Filtration Rate, mean change from baseline” value ([1]; Part 2, 100 mg QD, Week 2) was −8.05 mL/min/1.73 m^2 and the “Estimated Glomerular Filtration Rate, mean observed” value ([1]; Part 2, 100 mg QD, Week 2) was 72.07 mL/min/1.73 m^2. For the same compound, the “Estimated Glomerular Filtration Rate, mean change from baseline” value ([1]; Part 2, 100 mg QD, Week 3) was −7.33 mL/min/1.73 m^2, the “Estimated Glomerular Filtration Rate, mean observed” value ([1]; Part 2, 100 mg QD, Week 3) was 72.69 mL/min/1.73 m^2 and the “Estimated Glomerular Filtration Rate, mean change from baseline” value ([1]; Part 2, 100 mg QD, Week 4) was −7.20 mL/min/1.73 m^2. For the same compound, the “Estimated Glomerular Filtration Rate, mean observed” value ([1]; Part 2, 100 mg QD, Week 4) was 72.92 mL/min/1.73 m^2, the “Estimated Glomerular Filtration Rate, mean change from baseline” value ([1]; Part 2, 100 mg QD, Week 5) was −8.69 mL/min/1.73 m^2 and the “Estimated Glomerular Filtration Rate, mean observed” value ([1]; Part 2, 100 mg QD, Week 5) was 71.23 mL/min/1.73 m^2. The “Estimated Glomerular Filtration Rate, mean change from baseline” value ([1]; Part 2, 100 mg QD, Week 6) was −10.87 mL/min/1.73 m^2, the “Estimated Glomerular Filtration Rate, mean observed” value ([1]; Part 2, 100 mg QD, Week 6) was 68.04 mL/min/1.73 m^2 and the “Estimated Glomerular Filtration Rate, mean change from baseline” value ([1]; Part 2, 100 mg QD, Week 7) was −7.34 mL/min/1.73 m^2. For the same compound, the “Estimated Glomerular Filtration Rate, mean observed” value ([1]; Part 2, 100 mg QD, Week 7) was 72.82 mL/min/1.73 m^2, the “Estimated Glomerular Filtration Rate, mean change from baseline” value ([1]; Part 2, 100 mg QD, Week 8) was −7.95 mL/min/1.73 m^2 and the “Estimated Glomerular Filtration Rate, mean observed” value ([1]; Part 2, 100 mg QD, Week 8) was 72.43 mL/min/1.73 m^2. The “Change in estimated glomerular filtration rate (eGFR)” value ([1]; across dosing cohorts) was “dose-dependent and reversible reduction”, the Serum sodium levels (Serum sodium) was “decreased” and the “Clinical chemistry, hematology, coagulation, urinalysis changes from baseline to Week 8” value ([2]; Part 1 or Part 2) was “no meaningful changes”. The “Vital signs, physical examination, ECG parameters” value ([2]; Parts 1 and 2) was “no notable findings” and the Serum creatinine levels ([2]; active treatment cohorts compared with placebo, Parts 1 and 2) was “increased”.
